Assay [1] deals with MOLT-4 cells. The assay is described as follows: MOLT-4 cell viability using MTT assay. The class given is cell-based. The conditions noted are these: Homo sapiens, MOLT-4, 48 h, 48 h exposure. As for the experimental part: MTT colorimetric assay is based on the mitochondrial reduction of tetrazolium salt by living cells.
Cells were cultured at 37° C. in a humidified atmosphere containing 5% CO2. […] At the end of incubation time, 15 μL of MTT solution (5 mg/ml) were added per well and the cells were incubated for another 4 h. […] IC50s were calculated using standard four-parametric curve fitting.
(In general: Tetrazolium dyes change colour on reduction, which living cells bring about.)

Assay [2] has as its target His-His-(EK)-hsBCLXL(2-197)[N197C] (Homo sapiens (Human), UniProt Q07817, N197C). Put plainly: Fluorescence quenching assay. The class given is binding. The note with it: 1 nM Cy5-labelled protein, 400 nM PUMA peptide, 2 hours at 23° C.; KI determined from IC50. The method in brief: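 Ki values converted from IC50s, measured as fluorescence increase (Ex 620/Em 680 nm) after 2 h at 23° C. Compounds were titrated over 11 points against 1 nM Cy5-BCL-xL and 400 nM quencher-tagged PUMA peptide in pH 7.4 HEPES (10 mM), 150 mM NaCl, 0.05% Tween 20, 5% DMSO.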

Sequence of His-His-(EK)-hsBCLXL(2-197)[N197C] (Q07817 2-197 N197C): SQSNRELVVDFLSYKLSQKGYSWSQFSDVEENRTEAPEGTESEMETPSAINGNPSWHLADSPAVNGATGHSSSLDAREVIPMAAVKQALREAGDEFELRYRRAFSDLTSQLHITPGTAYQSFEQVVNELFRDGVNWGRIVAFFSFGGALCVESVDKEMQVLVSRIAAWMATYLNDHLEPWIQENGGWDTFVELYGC

As usually defined, the IC50 is the concentration at which inhibition is half-maximal. Low values mean greater potency in that assay, high ones weaker potency in that assay. For orientation: Ki means the dissociation constant of the complex between target and ligand, obtained from inhibition or displacement. `Cc1c(Nc2nc3ccccc3s2)nnc2c1CCCN2c1ccc(-c2cnn(CC34CC5(C)CC(C)(C3)CC(OCCN(CCCCO)CCCCO)(C5)C4)c2C)c(C(=O)O)n1` [Example 140, 6-[3-(1,3-benzothiazol-2-ylamino)-4-methyl-6,7-dihydro-5H-pyrido[2,3-c]pyridazin-8-yl]-3-[1-[[3-[2-[bis(4-hydroxybutyl)amino]ethoxy]-5,7-dimethyl-1-adamantyl]methyl]-5-methyl-pyrazol-4-yl]pyridine-2-carboxylic acid] yielded a 50% inhibitory concentration (IC50) in assay [1] of 2.85 nM. The inhibition constant (Ki) in assay [2] is 0.0032 nM.

On to `Cc1c(Nc2nc3ccccc3s2)nnc2c1CCCN2c1nc(C(=O)O)c(CCCOc2ccc(C#CCN(C)C)cc2)s1` [Example 141, 2-[3-(1,3-benzothiazol-2-ylamino)-4-methyl-6,7-dihydro-5H-pyrido[2,3-c]pyridazin-8-yl]-5-[3-[4-[3-(dimethylamino)prop-1-ynyl]phenoxy]propyl]thiazole-4-carboxylic acid], for which the 50% inhibitory concentration (IC50) in assay [1] is 0.098 nM. Moreover, the Ki in assay [2] is 0.0085 nM.

Take `Cc1c(Nc2nc3ccccc3s2)nnc2c1CCCN2c1ccc(-c2cnn(CC34CC5(C)CC(C)(C3)CC(OCCN3CCOCC3)(C5)C4)c2C)c(C(=O)O)n1` [Example 142, 6-[3-(1,3-benzothiazol-2-ylamino)-4-methyl-6,7-dihydro-5H-pyrido[2,3-c]pyridazin-8-yl]-3-[1-[[3,5-dimethyl-7-(2-morpholinoethoxy)-1-adamantyl]methyl]-5-methyl-pyrazol-4-yl]pyridine-2-carboxylic acid]: in assay [1], the IC50 is 0.0513 nM. In assay [2], the Ki stood at 0.0026 nM.

Take `Cc1c(Nc2nc3ccccc3s2)nnc2c1CCCN2c1ccc(-c2cnn(CC34CC5(C)CC(C)(C3)CC(OCCN3CCCCC3)(C5)C4)c2C)c(C(=O)O)n1` [Example 143, 6-[3-(1,3-benzothiazol-2-ylamino)-4-methyl-6,7-dihydro-5H-pyrido[2,3-c]pyridazin-8-yl]-3-[1-[[3,5-dimethyl-7-[2-(1-piperidyl)ethoxy]-1-adamantyl]methyl]-5-methyl-pyrazol-4-yl]pyridine-2-carboxylic acid]: the half-maximal inhibitory concentration (IC50) in assay [1] was determined as 0.0546 nM. For the same compound, in assay [2], the inhibition constant Ki was 0.0014 nM.

`Cc1c(Nc2nc3ccccc3s2)nnc2c1CCCN2c1ccc(-c2cnn(CC34CC5(C)CC(C)(C3)CC(OCCN3CCNCC3)(C5)C4)c2C)c(C(=O)O)n1` [Example 144, 6-[3-(1,3-benzothiazol-2-ylamino)-4-methyl-6,7-dihydro-5H-pyrido[2,3-c]pyridazin-8-yl]-3-[1-[[3,5-dimethyl-7-(2-piperazin-1-ylethoxy)-1-adamantyl]methyl]-5-methyl-pyrazol-4-yl]pyridine-2-carboxylic acid] returned an IC50 in assay [1] of 13.2 nM. For the same compound, the Ki in assay [2] worked out at 0.0014 nM.

In the case of `Cc1c(Nc2nc3ccccc3s2)nnc2c1CCCN2c1ccc(-c2cnn(CC34CC5(C)CC(C)(C3)CC(OCCN3CCCCCC3)(C5)C4)c2C)c(C(=O)O)n1` [Example 145, 3-[1-[[3-[2-(azepan-1-yl)ethoxy]-5,7-dimethyl-1-adamantyl]methyl]-5-methyl-pyrazol-4-yl]-6-[3-(1,3-benzothiazol-2-ylamino)-4-methyl-6,7-dihydro-5H-pyrido[2,3-c]pyridazin-8-yl]pyridine-2-carboxylic acid], in assay [1], 0.265 nM corresponded to half-maximal inhibition (IC50). For the same compound, the Ki in assay [2] was 0.0018 nM.

`Cc1c(Nc2nc3ccccc3s2)nnc2c1CCCN2c1ccc(-c2cnn(CC34CC5(C)CC(C)(C3)CC(OCCN3CCN(C(C)C)CC3)(C5)C4)c2C)c(C(=O)O)n1` [Example 146, 6-[3-(1,3-benzothiazol-2-ylamino)-4-methyl-6,7-dihydro-5H-pyrido[2,3-c]pyridazin-8-yl]-3-[1-[[3-[2-(4-isopropylpiperazin-1-yl)ethoxy]-5,7-dimethyl-1-adamantyl]methyl]-5-methyl-pyrazol-4-yl]pyridine-2-carboxylic acid] registered an IC50 in assay [1] of 0.247 nM. Also, the inhibitory constant (Ki) in assay [2] was found to be 0.0032 nM.

The compound `Cc1c(Nc2nc3ccccc3s2)nnc2c1CCCN2c1nc(C(=O)O)c(CCCOc2ccc(C#CCNCCCO)cc2F)s1` [Example 147, 2-[3-(1,3-benzothiazol-2-ylamino)-4-methyl-6,7-dihydro-5H-pyrido[2,3-c]pyridazin-8-yl]-5-[3-[2-fluoro-4-[3-(3-hydroxypropylamino)prop-1-ynyl]phenoxy]propyl]thiazole-4-carboxylic acid] came in with a concentration for half-maximal inhibition (IC50) in assay [1] of 0.852 nM. Also, in assay [2], the Ki turned out to be 0.0046 nM.

For the compound `Cc1c(Nc2nc3ccccc3s2)nnc2c1CCCN2c1nc(C(=O)O)c(CCCOc2ccc(C#CCN(C)CC[C@H](O)CO)cc2F)s1` [Example 148, 2-[3-(1,3-benzothiazol-2-ylamino)-4-methyl-6,7-dihydro-5H-pyrido[2,3-c]pyridazin-8-yl]-5-[3-[4-[3-[[(3S)-3,4-dihydroxybutyl]-methyl-amino]prop-1-ynyl]-2-fluoro-phenoxy]propyl]thiazole-4-carboxylic acid], the IC50 in assay [1] was found to be 0.277 nM. The Ki in assay [2] amounted to 0.0059 nM.

For `Cc1c(Nc2nc3ccccc3s2)nnc2c1CCCN2c1ccc(-c2cnn(CC34CC5(C)CC(C)(C3)CC(OCCNCc3ccc(O)cc3)(C5)C4)c2C)c(C(=O)O)n1` [Example 149, 6-[3-(1,3-benzothiazol-2-ylamino)-4-methyl-6,7-dihydro-5H-pyrido[2,3-c]pyridazin-8-yl]-3-[1-[[3-[2-[(4-hydroxyphenyl)methylamino]ethoxy]-5,7-dimethyl-1-adamantyl]methyl]-5-methyl-pyrazol-4-yl]pyridine-2-carboxylic acid], half-maximal inhibition in assay [1] (IC50) required 0.982 nM. Further, the inhibitory constant (Ki) in assay [2] was determined as 0.0037 nM.

`Cc1c(Nc2nc3ccccc3s2)nnc2c1CCCN2c1ccc(-c2cnn(CC34CC5(C)CC(C)(C3)CC(OCCN(C)CCO)(C5)C4)c2C)c(C(=O)O)n1` [Example 150, 6-[3-(1,3-benzothiazol-2-ylamino)-4-methyl-6,7-dihydro-5H-pyrido[2,3-c]pyridazin-8-yl]-3-[1-[[3-[2-[2-hydroxyethyl(methyl)amino]ethoxy]-5,7-dimethyl-1-adamantyl]methyl]-5-methyl-pyrazol-4-yl]pyridine-2-carboxylic acid] came in with an IC50 in assay [1] of 0.219 nM. Further, the Ki in assay [2] is 0.0015 nM.

Take `COCCCN(C)CCOC12CC3(C)CC(C)(CC(Cn4ncc(-c5ccc(N6CCCc7c6nnc(Nc6nc8ccccc8s6)c7C)nc5C(=O)O)c4C)(C3)C1)C2` [Example 151, 6-[3-(1,3-benzothiazol-2-ylamino)-4-methyl-6,7-dihydro-5H-pyrido[2,3-c]pyridazin-8-yl]-3-[1-[[3-[2-[3-methoxypropyl(methyl)amino]ethoxy]-5,7-dimethyl-1-adamantyl]methyl]-5-methyl-pyrazol-4-yl]pyridine-2-carboxylic acid]: inhibition in assay [1] was half-maximal at 0.0824 nM (IC50). The Ki in assay [2] amounted to 0.0015 nM.

For `Cc1c(Nc2nc3ccccc3s2)nnc2c1CCCN2c1ccc(-c2cnn(CC34CC5(C)CC(C)(C3)CC(OCCN(C)CCCCO)(C5)C4)c2C)c(C(=O)O)n1` [Example 153, 6-[3-(1,3-benzothiazol-2-ylamino)-4-methyl-6,7-dihydro-5H-pyrido[2,3-c]pyridazin-8-yl]-3-[1-[[3-[2-[4-hydroxybutyl(methyl)amino]ethoxy]-5,7-dimethyl-1-adamantyl]methyl]-5-methyl-pyrazol-4-yl]pyridine-2-carboxylic acid], the midpoint of inhibition in assay [1], the IC50, lay at 0.229 nM. In assay [2], the Ki came to 0.0012 nM.

The compound `Cc1c(Nc2nc3ccccc3s2)nnc2c1CCCN2c1ccc(-c2cnn(CC34CC5(C)CC(C)(CC(CCCN6CCCC6)(C5)C3)C4)c2C)c(C(=O)O)n1` [Example 166, 6-[3-(1,3-benzothiazol-2-ylamino)-4-methyl-6,7-dihydro-5H-pyrido[2,3-c]pyridazin-8-yl]-3-[1-[[3,5-dimethyl-7-(3-pyrrolidin-1-ylpropyl)-1-adamantyl]methyl]-5-methyl-pyrazol-4-yl]pyridine-2-carboxylic acid] showed a 50% inhibitory concentration (IC50) in assay [1] of 0.429 nM. In addition, the Ki in assay [2] turned out to be 0.0027 nM.

In assay [1], `Cc1c(Nc2nc3ccccc3s2)nnc2c1CCCN2c1ccc(-c2cnn(CC34CC5(C)CC(C)(CC(CCCN(C)C)(C5)C3)C4)c2C)c(C(=O)O)n1` [Example 167, 6-[3-(1,3-benzothiazol-2-ylamino)-4-methyl-6,7-dihydro-5H-pyrido[2,3-c]pyridazin-8-yl]-3-[1-[[3-[3-(dimethylamino)propyl]-5,7-dimethyl-1-adamantyl]methyl]-5-methyl-pyrazol-4-yl]pyridine-2-carboxylic acid] gave an IC50 of 0.0532 nM. In addition, the Ki in assay [2] turned out to be 0.0019 nM.

Consider `Cc1c(Nc2nc3ccccc3s2)nnc2c1CCCN2c1ccc(-c2cnn(CC34CC5(C)CC(C)(CC(CCCN6CCN(C)CC6)(C5)C3)C4)c2C)c(C(=O)O)n1` [Example 168, 6-[3-(1,3-benzothiazol-2-ylamino)-4-methyl-6,7-dihydro-5H-pyrido[2,3-c]pyridazin-8-yl]-3-[1-[[3,5-dimethyl-7-[3-(4-methylpiperazin-1-yl)propyl]-1-adamantyl]methyl]-5-methyl-pyrazol-4-yl]pyridine-2-carboxylic acid], for which the IC50 in assay [1] worked out at 0.291 nM. Also, in assay [2], the Ki turned out to be 0.0029 nM.

Compound `Cc1c(Nc2nc3ccccc3s2)nnc2c1CCCN2c1ccc(-c2cnn(CC34CC5(C)CC(C)(CC(CCCNCCCO)(C5)C3)C4)c2C)c(C(=O)O)n1` [Example 170, 6-[3-(1,3-benzothiazol-2-ylamino)-4-methyl-6,7-dihydro-5H-pyrido[2,3-c]pyridazin-8-yl]-3-[1-[[3-[3-(3-hydroxypropylamino)propyl]-5,7-dimethyl-1-adamantyl]methyl]-5-methyl-pyrazol-4-yl]pyridine-2-carboxylic acid] gave a half-maximal inhibitory concentration (IC50) in assay [1] of 0.787 nM. Also, the Ki in assay [2] is 0.0027 nM.

The record behind these values is patent US12570648B2, “6,7-dihydro-5H-pyrido[2,3-c]pyridazine derivatives and related compounds as Bcl-xL protein inhibitors and pro-apoptotic agents for treating cancer” (LES LABORATOIRES SERVIER, priority 2019, dated 2026).
